Measurements from patent US4794174A, “5'deoxy-5'-substituted adenosines” (Southern Research Institute, priority 1987, dated 1988).
pIC50: −log10 of the molar value. Entries after “also recorded” stand apart in the source; their conditions may differ. Blank lines part the entries; values can stand above or below the molecule they belong to.

How the values were obtained:
[1] = target: T1, AdoMet-DC from MRC5 Cells (Homo sapiens, UniProt P17707); assay: Effect of compounds on AdoMet-DC from MRC5 cells (crude enzyme preparation); type: biochemical; conditions: AdoMet 30 μM, read-out: ID50 (the source's name)
T1 construct: Effect of Compounds on AdoMet-DC from MRC5 Cells; endogenous in cells; host or cells: MRC5 cells (crude enzyme preparation)
T1 sequence (P17707 68-334 limits assumed): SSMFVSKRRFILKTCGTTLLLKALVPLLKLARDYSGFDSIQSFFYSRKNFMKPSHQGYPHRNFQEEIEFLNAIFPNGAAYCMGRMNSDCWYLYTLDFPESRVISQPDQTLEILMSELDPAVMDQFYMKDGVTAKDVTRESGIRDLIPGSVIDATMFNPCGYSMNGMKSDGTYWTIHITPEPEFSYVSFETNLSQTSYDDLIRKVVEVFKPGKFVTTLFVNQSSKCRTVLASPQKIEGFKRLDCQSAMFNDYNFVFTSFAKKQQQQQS
T1 sequence (P17707 1-67 limits assumed): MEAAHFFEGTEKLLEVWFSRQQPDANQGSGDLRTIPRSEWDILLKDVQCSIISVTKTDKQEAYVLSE
Description: Effect of Compounds on AdoMet-DC from MRC5 Cells
mixture contained AdoMet at a concentration of 30 μM. Each inhibitor
was tested at a series of concentrations.

[2] = system: L1210 Cells; assay: Cell number of L1210 cells treated with 25; type: cell-based; conditions: 96 hrs; +100 μM
Description: (§1) Polyamine Levels in L1210 Cells Treated with --25.

[3] = system: L1210 Cells; assay: Polyamine levels in L1210 cells treated with 25; type: cell-based; conditions: for Polyamine Content, Putrescine / Polyamine Content, Spermidine / Polyamine Content, Spermine: +100 μM
Description: as §1

[4] = system: HCMV; assay: In vitro antiviral activity against cytomegalovirus: HCMV yields in MRC5 cell monolayer cultures; type: cell-based
Description: The Effects of --25 on HCMV Yields in MRC5
*Treatment with --25 began 72 hours prior to virus adsorption. Culture
fluids were replaced with fresh drug and medium 24 hours before virus
infection, immediately following virus infection, and 3 days p.i.

- pIC50 [1]: 6.22
SMILES: CN(CCNC(=O)NN)C[C@H]1O[C@@H](n2cnc3c(N)ncnc32)[C@H](O)[C@@H]1O [Compound 16, 5'-Deoxy-5'-[N-methyl-N-[2-(hydrazinecarboxamido)ethyl]aminoadenosine, sesquisulfate dihydrate]

- pIC50 [1]: 5.74
SMILES: CN(CCCNC(=S)NN)C[C@H]1O[C@@H](n2cnc3c(N)ncnc32)[C@@H]2OC(C)(C)O[C@@H]21 [Compound 22, 2',3'-O-Methylethylidene-5'-deoxy-5'-[N-methyl-N-[3-(hydrazinethiocarboxamido)propyl]]aminoadenosine]

SMILES: CN(CCCNN)C[C@H]1O[C@@H](n2cnc3c(N)ncnc32)[C@H](O)[C@@H]1O [Compound 25, 5'-Deoxy-5'-[N-methyl-N-(3-hydrazinopropyl)]aminoadenosine sesquisulfate 1.8H2 O.0.1EtOH]
- Cell Number × 10^-5 per mL [2]: 17 × 10^-5 per mL
- pIC50 [1]: 8.10
- Polyamine Content, Putrescine ([3]; 24 hrs): 3.16 umol/10^6 Cells
- Polyamine Content, Spermidine ([3]; 24 hrs): 0.58 umol/10^6 Cells
- Polyamine Content, Spermine ([3]; 24 hrs): 0.20 umol/10^6 Cells
- Polyamine Content, Putrescine ([3]; 48 hrs): 4.91 umol/10^6 Cells
- Polyamine Content, Spermidine ([3]; 48 hrs): 0.78 umol/10^6 Cells
- Polyamine Content, Spermine ([3]; 48 hrs): 0.16 umol/10^6 Cells
- Polyamine Content, Putrescine ([3]; 96 hrs): 5.69 umol/10^6 Cells
- Polyamine Content, Spermidine ([3]; 96 hrs): 0.65 umol/10^6 Cells
- Polyamine Content, Spermine ([3]; 96 hrs): 0.19 umol/10^6 Cells
- effect on spermidine, spermine and putrescine levels ([3]; in words, Table 4): decrease in spermidine and spermine levels; also recorded: increase in putrescine levels
- CMV Yield (PFU/ml) ([4]; 3.2 μM): 5.8 PFU/ml
- CMV Yield (log10 PFU/ml) ([4]; 3.2 μM): 5.8 × 10^5 log10 PFU/ml
- CMV Yield (PFU/ml) ([4]; 10 μM): 5.8 PFU/ml
- CMV Yield (log10 PFU/ml) ([4]; 10 μM): 6.3 × 10^5 log10 PFU/ml
- CMV Yield (PFU/ml) ([4]; 32 μM): 5.8 PFU/ml
- CMV Yield (log10 PFU/ml) ([4]; 32 μM): 5.8 × 10^5 log10 PFU/ml
- CMV Yield (PFU/ml) ([4]; 100 μM): 5.6 PFU/ml
- CMV Yield (log10 PFU/ml) ([4]; 100 μM): 4.2 × 10^5 log10 PFU/ml
- CMV Yield (PFU/ml) ([4]; 320 μM): 5.1 PFU/ml
- CMV Yield (log10 PFU/ml) ([4]; 320 μM): 1.2 × 10^5 log10 PFU/ml
- CMV Yield (PFU/ml) ([4]; 1000 μM): 2.2 PFU/ml
- CMV Yield (log10 PFU/ml) ([4]; 1000 μM): 1.4 × 10^2 log10 PFU/ml
- inhibition at 10 µM ([4]; Human betaherpesvirus 5, MRC5, 10 μM, read-out: Reduction (%) of CPE at Time of Virus Harvest): 0%
- inhibition at 100 µM ([4]; Human betaherpesvirus 5, MRC5, 100 μM, read-out: Reduction (%) of CPE at Time of Virus Harvest): 0%
- inhibition at 320 µM ([4]; Human betaherpesvirus 5, MRC5, 320 μM, read-out: Reduction (%) of CPE at Time of Virus Harvest): 0%
